Assay results: the supplement of paper PMC10307832

Experiments:
Assay in all cases: relative viability (nuclei count vs DMSO), 5 days (fraction); higher = more cells survive
Cabozantinib + Foretinib = compound: COc1cc2nccc(Oc3ccc(NC(=O)C4(C(=O)Nc5ccc(F)cc5)CC4)cc3)c2cc1OC [Cabozantinib] + COc1cc2c(Oc3ccc(NC(=O)C4(C(=O)Nc5ccc(F)cc5)CC4)cc3F)ccnc2cc1OCCCN1CCOCC1 [Foretinib] (partner 0.25 µM)
How it was run: (§1)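 Five library-drug doses in √10 steps were combined with a fixed anchor-drug dose, or a single drug was given alone, by pin tool to lung cancer cell lines in 1536-well plates the day after seeding. Nuclei were stained and counted after 5 days. Relative viability is the nuclei count in treated wells over that in vehicle wells, taken as the median of duplicate plates.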

Zosuquidar + Alpelisib = compound: O[C@@H](COc1cccc2ncccc12)CN1CCN([C@@H]2c3ccccc3[C@@H]3[C@H](c4ccccc42)C3(F)F)CC1 [Zosuquidar] + Cc1nc(NC(=O)N2CCC[C@H]2C(N)=O)sc1-c1ccnc(C(C)(C)C(F)(F)F)c1 [Alpelisib] (partner 2 µM)
How it was run: as §1

Kobe2602 + Pemetrexed = compound: C1=CC(=CC=C1NC(=S)NNC2=C(C=C(C=C2[N+](=O)[O-])C(F)(F)F)[N+](=O)[O-])F [Kobe2602] + Nc1nc2[nH]cc(CCc3ccc(C(=O)N[C@@H](CCC(=O)O)C(=O)O)cc3)c2c(=O)[nH]1 [Pemetrexed] (partner 0.2 µM)
How it was run: as §1

[1] = compound: COc1cc2nccc(Oc3ccc(NC(=O)C4(C(=O)Nc5ccc(F)cc5)CC4)cc3)c2cc1OC [Cabozantinib] + CS(=O)(=O)N1CCN(Cc2cc3nc(-c4cccc5[nH]ncc45)nc(N4CCOCC4)c3s2)CC1 [Pictilisib] (partner 1 µM)
How it was run: as §1

Row | Cell Line | relative viability (Cabozantinib + Foretinib; first compound 0.06325 µM) | relative viability (Cabozantinib + Foretinib; first compound 0.2 µM) | relative viability (Cabozantinib + Foretinib; first compound 0.6325 µM) | relative viability (Cabozantinib + Foretinib; first compound 2 µM) | relative viability (Zosuquidar + Alpelisib; first compound 0.01 µM) | relative viability (Zosuquidar + Alpelisib; first compound 0.03162 µM) | relative viability (Zosuquidar + Alpelisib; first compound 0.1 µM) | relative viability (Zosuquidar + Alpelisib; first compound 0.3162 µM) | relative viability (Zosuquidar + Alpelisib; first compound 1 µM) | relative viability (Kobe2602 + Pemetrexed; first compound 0.2 µM) | relative viability (Kobe2602 + Pemetrexed; first compound 0.6325 µM) | relative viability (Kobe2602 + Pemetrexed; first compound 2 µM) | relative viability (Kobe2602 + Pemetrexed; first compound 6.325 µM) | relative viability (Kobe2602 + Pemetrexed; first compound 20 µM) | relative viability ([1]; first compound 0.02 µM) | relative viability ([1]; first compound 0.06325 µM) | relative viability ([1]; first compound 0.2 µM) | relative viability ([1]; first compound 0.6325 µM) | relative viability ([1]; first compound 2 µM) | relative viability (Cabozantinib + Foretinib; first compound 0.02 µM)
1 | 201T | 1.21 | 1.05 | 1.05 | 1.14 | 0.891 | 0.965 | 0.896 | 1.01 | 1.06 | 0.353 | 0.366 | 0.341 | 0.379 | 0.288 | 0.688 | 0.715 | 0.656 | 0.709 | 0.71 | 
2 | A549 | 1.17 | 0.964 | 0.909 | 0.942 | 0.688 | 0.745 | 0.678 | 1.03 | 0.877 |  |  |  |  |  | 0.572 | 0.57 | 0.502 | 0.514 | 0.379 | 1.09
3 | A-427 | 1.28 | 0.89 | 0.967 | 0.786 | 1.08 | 1.01 | 0.902 | 1.07 | 1.04 | 0.993 | 1.08 | 0.963 | 0.956 | 0.902 | 0.657 | 0.785 | 0.638 | 0.773 | 0.744 | 1.09
4 | ABC-1 | 1.13 | 1.11 | 1 | 0.932 | 0.949 | 1.07 | 1.06 | 0.994 | 1.16 |  |  |  |  |  | 0.604 | 0.707 | 0.681 | 0.701 | 0.819 | 1.15
5 | BEN | 0.79 | 0.708 | 0.787 | 0.387 | 1.07 | 0.968 | 0.815 | 1 | 1.21 | 0.736 | 0.803 | 0.724 | 0.846 | 0.98 | 0.58 | 0.632 | 0.576 | 0.601 | 0.458 | 0.595
6 | CAL-12T | 1.31 | 1.17 | 1.08 | 1.18 | 1.17 | 1.13 | 1.16 | 1.41 | 1.13 | 1.2 | 1.14 | 1.24 | 1.1 | 1.14 | 0.364 | 0.411 | 0.383 |  | 0.336 | 1.22
7 | COR-L23 | 1.1 | 0.976 | 0.977 | 0.95 | 0.88 | 0.783 | 0.789 | 0.902 | 0.723 | 0.209 | 0.2 | 0.212 | 0.204 | 0.204 | 0.487 | 0.831 | 0.789 | 0.74 | 0.691 | 0.978
8 | COR-L 105 | 1.01 |  | 1.14 | 0.969 | 1.07 | 0.852 | 1.11 | 1.07 | 1.12 | 1.01 | 1.27 | 0.923 | 1.15 | 1.16 | 0.343 | 0.385 |  | 0.43 | 0.37 | 1.36
9 | Calu-6 | 0.876 | 0.923 | 0.916 | 0.811 | 0.938 | 0.972 | 1.01 | 1.12 | 0.879 |  |  |  |  |  | 0.984 | 1.05 | 0.878 | 0.814 | 0.78 | 1.04
10 | ChaGo-K-1 | 1.04 | 0.968 | 0.836 | 0.857 |  |  |  |  |  | 0.27 | 0.26 | 0.267 | 0.267 | 0.266 | 0.533 | 0.933 | 0.676 | 0.405 | 0.647 | 0.937
11 | EBC-1 | 0.104 | 0.0976 | 0.0898 | 0.114 | 0.83 | 0.842 | 0.794 | 1.09 | 0.779 |  |  |  |  |  | 0.29 | 0.193 | 0.169 | 0.166 | 0.107 | 0.101
12 | EKVX | 0.862 | 0.81 | 0.536 | 0.852 | 0.887 | 0.846 | 0.634 | 0.781 | 0.94 | 0.416 | 0.394 | 0.404 | 0.41 | 0.408 | 0.483 | 0.448 | 0.344 | 0.418 | 0.367 | 0.77
13 | EMC-BAC-2 | 0.973 | 1.04 | 0.982 | 0.962 | 0.715 | 0.793 | 0.677 | 0.82 | 0.761 | 0.459 | 0.453 | 0.445 | 0.492 | 0.457 | 0.505 | 0.566 | 0.516 | 0.554 | 0.542 | 1.02
14 | EPLC-272H | 0.884 | 0.515 | 0.82 | 0.782 | 0.946 | 0.999 | 0.801 | 0.936 | 0.805 | 0.353 | 0.35 | 0.301 | 0.318 | 0.279 | 0.192 | 0.262 | 0.323 | 0.356 | 0.279 | 0.77
15 | H3255 | 1.01 |  | 0.979 | 1.07 | 0.712 | 0.769 | 0.492 | 0.797 | 0.689 | 0.549 | 0.544 | 0.57 | 0.629 | 0.584 | 0.473 | 0.572 |  | 0.466 | 0.48 | 0.773
16 | HARA | 1.02 | 0.711 | 0.949 | 0.691 | 0.784 | 0.822 | 0.765 | 0.825 | 0.761 | 0.228 | 0.296 | 0.255 | 0.239 | 0.313 | 0.315 | 0.417 | 0.508 | 0.474 | 0.429 | 1.04
17 | HCC-15 | 1.13 | 1.06 | 1.04 | 1.07 | 0.922 | 0.88 | 0.869 | 0.932 | 0.869 | 0.238 | 0.216 | 0.223 | 0.229 | 0.211 | 0.785 | 0.762 | 0.69 | 0.719 | 0.799 | 1.26
